Data: ChEMBL document CHEMBL1122277, “l-1,2,3,4-Tetrahydro-8-methoxy-5-(methylthio)-2-naphthalenamine: a potent and selective agonist at alpha 1-adrenoceptors” (J Med Chem, 1983)

Key:
Type in all cases: functional
Oryctolagus cuniculus [1] = species on record: Oryctolagus cuniculus; test: (§1) Alpha-1-adrenergic potency measured in the isolated rabbit ear artery
Oryctolagus cuniculus [2] = species on record: Oryctolagus cuniculus; test: as §1; remark: listed apart in the source
Oryctolagus cuniculus [3] = test: Blockade of the constrictor response to exogenously administered L-norepinephrine

Row | Compound | EC50 (Oryctolagus cuniculus [1]) [µM] | EC50 (Oryctolagus cuniculus [2]) [µM] | KB (Oryctolagus cuniculus [3]) [nM]
1 | COc1ccc(SC)c2c1CC(N)CC2 (centres undefined) | 0.06 | 0.009 | 
2 | COc1cc2nc(N3CCN(C(=O)c4ccco4)CC3)nc(N)c2cc1OC [PRAZOSIN] |  |  | 2.7
3 | COC(=O)[C@@H]1[C@H]2C[C@H]3c4[nH]c5ccccc5c4CCN3C[C@@H]2CC[C@@H]1O [YOHIMBINE] |  |  | 4000
